Results on 1 compound are retold here after patent US8236801B2, “2-aza-bicyclo[2.2.1]heptane derivatives” (Actelion Pharmaceuticals Ltd., priority 2008, dated 2012).

The target in one experiment is T1, human orexin-1 receptor (Homo sapiens, UniProt O43613).
T1 construct: expressed in transfected cells; host or cells: Chinese hamster ovary (CHO) cells, G418 selection
T1 sequence (O43613 1-425): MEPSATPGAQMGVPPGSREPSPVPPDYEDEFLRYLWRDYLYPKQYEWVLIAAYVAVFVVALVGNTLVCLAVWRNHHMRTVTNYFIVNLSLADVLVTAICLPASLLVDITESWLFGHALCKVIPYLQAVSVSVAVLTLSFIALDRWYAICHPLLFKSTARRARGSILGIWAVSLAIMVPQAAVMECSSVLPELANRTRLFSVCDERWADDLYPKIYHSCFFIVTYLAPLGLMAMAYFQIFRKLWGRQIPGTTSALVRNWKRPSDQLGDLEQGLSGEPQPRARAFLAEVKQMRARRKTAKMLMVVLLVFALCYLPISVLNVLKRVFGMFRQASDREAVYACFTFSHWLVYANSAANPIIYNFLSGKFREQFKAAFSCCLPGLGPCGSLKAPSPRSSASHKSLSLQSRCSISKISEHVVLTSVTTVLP
Description: FLIPR calcium assay, antagonism of orexin-A in CHO cells expressing the human orexin-1 receptor. Format: cell-based. Conditions: measured with FLIPR Tetra (marked *); geometric mean from n = 2 values; read-out: OX1 IC50. The procedure:
(§1) Chinese hamster ovary (CHO) cells expressing the human orexin-1 receptor and the human orexin-2 receptor, respectively, are grown in culture medium (Ham F-12 with L-Glutamine) containing 300 μg/ml G418, 100 U/ml penicillin, 100 μg/ml streptomycin and 10% heat inactivated fetal calf serum (FCS). The cells are seeded at 20′000 cells/well into 384-well black clear bottom sterile plates (Greiner). The seeded plates are incubated overnight at 37° C. in 5% CO2. Human orexin-A as an agonist is prepared as 1 mM stock solution in MeOH:water (1:1), diluted in HBSS containing 0.1% bovine serum albumin (BSA), NaHCO3: 0.375 g/l and 20 mM HEPES for use in the assay at a final concentration of 3 nM. Antagonists are prepared as 10 mM stock solution in DMSO, then diluted in 384-well plates, first in DMSO, then in HBSS containing 0.1% bovine serum albumin (BSA), NaHCO3: 0.375 g/l and 20 mM HEPES. On the day of the assay, 50 μl of staining buffer (HBSS containing 1% FCS, 20 mM HEPES, NaHCO3: 0.375 g/l, 5 mM probenecid (Sigma) and 3 μM of the fluorescent calcium indicator fluo-4 AM (1 mM stock solution in DMSO, containing 10% pluronic) is added to each well. The 384-well cell-plates are incubated for 50 min at 37° C. in 5% CO2 followed by equilibration at rt for 30-120 min before measurement. Within the Fluorescent Imaging Plate Reader (FLIPR2 or FLIPR Tetra, Molecular Devices), antagonists are added to the plate in a volume of 10 μl/well, incubated for 10 min and finally 10 μl/well of agonist is added. Fluorescence is measured for each well at 1 second intervals, and the height of each fluorescence peak is compared to the height of the fluorescence peak induced by 3 nM orexin-A with vehicle in place of antagonist. For each antagonist, the IC50 value (the concentration of compound needed to inhibit 50% of the agonistic response) is determined. Optimized conditions may be achieved by adjustment of pipetting speed and cell splitting regime. The calculated IC50 values of the compounds may fluctuate depending on the daily cellular assay performance. Fluctuations of this kind are known to those skilled in the art.

A further experiment has as its target T2, human orexin-2 receptor (Homo sapiens, UniProt O43614).
T2 construct: expressed in transfected cells; host or cells: Chinese hamster ovary (CHO) cells, G418 selection
T2 sequence (O43614 1-444): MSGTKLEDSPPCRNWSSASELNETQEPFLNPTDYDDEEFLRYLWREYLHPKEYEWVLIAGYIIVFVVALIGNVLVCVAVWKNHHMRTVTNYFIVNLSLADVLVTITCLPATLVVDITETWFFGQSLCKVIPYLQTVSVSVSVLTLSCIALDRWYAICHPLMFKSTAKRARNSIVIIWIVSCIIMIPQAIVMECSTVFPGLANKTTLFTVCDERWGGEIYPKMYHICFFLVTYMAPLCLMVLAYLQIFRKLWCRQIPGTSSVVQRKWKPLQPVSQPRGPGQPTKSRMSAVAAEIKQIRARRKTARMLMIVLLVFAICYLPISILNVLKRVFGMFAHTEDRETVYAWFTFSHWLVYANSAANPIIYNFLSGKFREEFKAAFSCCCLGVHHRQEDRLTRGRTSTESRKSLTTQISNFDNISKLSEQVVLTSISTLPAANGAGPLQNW
Put plainly: FLIPR calcium assay, antagonism of orexin-A in CHO cells expressing the human orexin-2 receptor. Conditions: measured with FLIPR Tetra (marked *); geometric mean from n = 2 values; read-out: OX2 IC50. Format: cell-based. The procedure: as §1

For the compound `Cc1nc2c(C(=O)NC[C@@H]3[C@H]4CC[C@H](C4)N3C(=O)c3nc(N(C)C)sc3-c3cccc(F)c3)cccc2o1` [Example 79, 2-Methyl-benzooxazole-4-carboxylic acid {(1R,3S,4S)-2-[2-dimethylamino-5-(3-fluoro-phenyl)-thiazole-4-carbonyl]-2-aza-bicyclo[2.2.1]hept-3-ylmethyl}-amide], the IC50 on human orexin-1 receptor stood at 64 nM; at human orexin-2 receptor, 71 nM.
